pIC50: −log10 of the molar value. Counter-ions that a name gives are not always drawn. Where only a bound is given, the exact number is not on record here.

Results on 27 molecules are retold here after patent US7750017B2, “Heterocycles” (Bayer Schering Pharma Aktiengesellschaft, priority 2004, dated 2010).

Experiment [1] deals with BT474 [human breast carcinoma, overexpressing HER2 (ErbB2)]. Kind of experiment: In vitro tumor cell proliferation assay (Cell Titer-Glo luminescent cell viability), BT474 cells. Conditions: BT-474, 72 h, 72 hours of drug exposure, Cell Titer-Glo readout, read-out: IC50, anti-proliferative activity in BT474 cells. In kind it is cell-based.
Experiment [2] relates to A431 cells [human epidermoid carcinoma, overexpressing HER1 (EGFR, ErbB1)]. Kind of experiment: In vitro tumor cell proliferation assay (Cell Titer-Glo luminescent cell viability), A431 cells. The settings on record: A-431, 72 h, 72 hours of drug exposure, Cell Titer-Glo readout, read-out: IC50, anti-proliferative activity in A431 cells. In kind it is cell-based. On the technique in general: In ATP-based viability assays light output follows the ATP content of the culture.

`CS(=O)(=O)CCNCCc1ccc2c(c1)sc1ncnc(Nc3ccc(OCc4ccccn4)c(Cl)c3)c12` [Example 85, N-[3-chloro-4-(pyridin-2-ylmethoxy)phenyl]-7-(2-{[2-(methylsulfonyl)ethyl]amino}ethyl) [1]benzothieno[2,3-d]pyrimidin-4-amine trifluoroacetate]: the pIC50 in experiment [1] is no less than 6.30; in experiment [2], no less than 5.30.

As for `O=S1(=O)CCN(CCc2ccc3c(c2)sc2ncnc(Nc4ccc(OCc5cccc(F)c5)c(Cl)c4)c23)CC1` [Example 18, N-{3-chloro-4-[(3-fluorobenzyl)oxy]phenyl}-7-[2-(1,1-dioxidothiomorpholin-4-yl)ethyl][1]benzothieno[2,3-d] pyrimidin-4-amine], the pIC50 in experiment [1] is no less than 6.30; in experiment [2], no less than 4.30.

Regarding `OCC(O)C(O)c1ccc2c(c1)sc1ncnc(Nc3ccc(OCc4cccc(F)c4)c(Cl)c3)c12` (stereo not drawn) [Example 62, 1-[4-({3-chloro-4-[(3-fluorobenzyl)oxy]phenyl}amino)[1]benzothieno[2,3-d]pyrimidin-7-yl]propane-1,2,3-triol], the pIC50 is no less than 6.30 in experiment [1] and no less than 5.30 in experiment [2].

`CN(C)CCNC(=O)CCc1ccc2c(c1)sc1ncnc(Nc3ccc(OCc4cccc(F)c4)c(Cl)c3)c12` [Example 70, 3-[4-({3-chloro-4-[(3-fluorobenzyl)oxy]phenyl}amino)[1]benzothieno[2,3-d]pyrimidin-7-yl]-N-[2-(dimethylamino)ethyl] propanamide]: the pIC50 in experiment [1] and in experiment [2] was no less than 5.30 throughout.

`O=C(Cc1ccc2c(c1)sc1ncnc(Nc3ccc(OCc4cccc(F)c4)c(Cl)c3)c12)N1CCOCC1` [Example 28, 2-{4-[3-Chloro-4-(3-fluoro-benzyloxy)-phenylamino]-benzo[4,5]thieno[2,3-]pyrimidin-7-yl}-1-morpholin-4-yl-ethanone]: the pIC50 was no less than 6.30 in experiment [1] and no less than 5.30 in experiment [2].

Turning to `Fc1cccc(COc2ccc(Nc3ncnc4sc5cc(OCCn6cccc6)ccc5c34)cc2Cl)c1` [Example 40, N-{3-chloro-4-[(3-fluorobenzyl)oxy]phenyl}-7-[2-(1H-pyrrol-1-yl)ethoxy][1] benzothieno[2,3-d]pyrimidin-4-amine], the pIC50 in experiment [1] is no less than 5.30; in experiment [2], no less than 4.30.

On to `CCN1CCN(C(=O)[C@H](O)[C@@H](O)c2ccc3c(c2)sc2ncnc(Nc4ccc(OCc5cccc(F)c5)c(Cl)c4)c23)CC1` [Example 57, (1S,2R)-1-[4-({3-chloro-4-[(3-fluorobenzyl)oxy]phenyl}amino) [1]benzothieno[2,3-d]pyrimidin-7-yl]-3-(4-ethylpiperazin-1-yl)-3-oxopropane-1,2-diol], for which the values for the pIC50 in experiment [1] and in experiment [2] were no less than 5.30 and no less than 4.30, respectively.

As for `O=C(O)CCc1ccc2c(c1)sc1ncnc(Nc3ccc(OCc4cccc(F)c4)c(Cl)c3)c12` [Example 65, 3-[4-({3-chloro-4-[(3-fluorobenzyl)oxy]phenyl}amino)[1]benzothieno[2,3-d]pyrimidin-7-yl]propanoic acid], the figures for the pIC50 in experiment [1] and in experiment [2] were no less than 5.30 and no less than 4.30, respectively.

Turning to `COCCN(CCOC)CCc1ccc2c(c1)sc1ncnc(Nc3ccc(OCc4cccc(F)c4)c(Cl)c3)c12` [Example 6, 7-{2-[bis(2-methoxyethyl)amino]ethyl}-N-{3-chloro-4-[(3-fluorobenzyl)oxy]phenyl}[1] benzothieno[2,3-d]pyrimidin-4-amine], the pIC50 in experiment [1] is no less than 6.30; in experiment [2] it was no less than 5.30.

Regarding `O=C(Cc1ccc2c(c1)sc1ncnc(Nc3ccc(OCc4cccc(F)c4)c(Cl)c3)c12)NCCOCCO` [Example 29, 2-[4-({3-chloro-4-[(3-fluorobenzyl)oxy]phenyl}amino)[1]benzothieno[2,3-d]pyrimidin-7-yl]-N-[2-(2-hydroxyethoxy)ethyl] acetamide], the pIC50 in experiment [1] was no less than 6.30; in experiment [2], no less than 5.30.

`C=Cc1ccc2c(c1)sc1ncnc(Nc3ccc(OCc4ccccn4)c(Cl)c3)c12` [Example 72, N-[3-chloro-4-(pyridin-2-ylmethoxy)phenyl]-7-vinyl[1]benzothieno[2,3-d]pyrimidin-4-amine]: the figures for the pIC50 in experiment [1] and in experiment [2] were no less than 5.30 and no less than 4.30, respectively.

For the molecule `CN(C)[C@H]1CCN(C(=O)/C=C/c2ccc3c(c2)sc2ncnc(Nc4ccc(OCc5cccc(F)c5)c(Cl)c4)c23)C1` [Example 52, N-{3-chloro-4-[(3-fluorobenzyl)oxy]phenyl}-7-{(1E)-3-[(3S)-3-(dimethylamino)pyrrolidin-1-yl]-3-oxoprop-1-en-1-yl}[1]benzothieno[2,3-d] pyrimidin-4-amine], the negative logarithm of the IC50 (pIC50) in experiment [1] and in experiment [2] was no less than 5.30 throughout.

For `Clc1cc(Nc2ncnc3sc4cc(CCBr)ccc4c23)ccc1OCc1ccccn1` [Example 83, 7-(2-bromoethyl)-N-[3-chloro-4-(pyridin-2-ylmethoxy)phenyl][1] benzothieno[2,3-d]pyrimidin-4-amine], the figures for the pIC50 in experiment [1] and in experiment [2] were no less than 6.30 and no less than 5.30, respectively.

As to `OCCc1ccc2c(c1)sc1ncnc(Nc3ccc(OCc4ccccn4)c(Cl)c3)c12` [Example 82, 2-(4-{[3-chloro-4-(pyridin-2-ylmethoxy)phenyl]amino}[1]benzothieno[2,3-d]pyrimidin-7-yl) ethanol], the pIC50 in experiment [1] was no less than 6.30; in experiment [2], no less than 5.30.

Turning to `Fc1cccc(COc2ccc(Nc3ncnc4sc5cc(CCn6ccnc6)ccc5c34)cc2Cl)c1` [Example 7, [3-chloro-4-(3-fluoro-benzyloxy)-phenyl]-[7-(2-imidazol-1-yl-ethyl)-benzo[4,5]thieno[2,3-d]pyrimidin-4-yl]-amine], the pIC50 in experiment [1] is no less than 5.30; in experiment [2], no less than 4.30.

Take `OCCN(CCO)CCc1ccc2c(c1)sc1ncnc(Nc3ccc(OCc4cccc(F)c4)c(Cl)c3)c12` [Example 8, 2,2'-({2-[4-({3-chloro-4-[(3-fluorobenzyl)oxy]phenyl}amino)[1]benzothieno[2,3-d]pyrimidin-7-yl]ethyl}imino)diethanol]: the results for the pIC50 in experiment [1] and in experiment [2] were no less than 6.30 and no less than 5.30, respectively.

Consider `Fc1cccc(COc2ccc(Nc3ncnc4sc5cc(CCBr)ccc5c34)cc2Cl)c1` [Example 3, 7-(2-bromoethyl)-N-{3-chloro-4-[(3-fluorobenzyl)oxy]phenyl}[1]benzothieno[2,3-d]pyrimidin-4-amine], for which the pIC50 in experiment [1] was no less than 6.30; in experiment [2], no less than 5.30.

Consider `O=C(Cc1ccc2c(c1)sc1ncnc(Nc3ccc(OCc4ccccn4)c(Cl)c3)c12)N1CCC[C@@H]1CO` [Example 108, {1-[(4-{[3-chloro-4-(pyridin-2-ylmethoxy)phenyl]amino}[1]benzothieno[2,3-d]pyrimidin-7-yl)acetyl]pyrrolidin-2-yl}methanol], for which the pIC50 in experiment [1] and in experiment [2] was no less than 5.30 throughout.

Consider `Fc1cccc(COc2ccc(Nc3ncnc4sc5cc(OCCN6CCCC6)ccc5c34)cc2Cl)c1` [Example 41, N-{3-chloro-4-[(3-fluorobenzyl)oxy]phenyl}-7-(2-pyrrolidin-1-ylethoxy)[1] benzothieno[2,3-d]pyrimidin-4-amine], for which the values for the pIC50 in experiment [1] and in experiment [2] were no less than 6.30 and no less than 5.30, respectively.

For `Clc1cc(Nc2ncnc3sc4cc(N5CCOCC5)ccc4c23)ccc1OCc1ccccn1` [Example 76, N-[3-chloro-4-(pyridin-2-ylmethoxy)phenyl]-7-morpholin-4-yl[1]benzothieno[2,3-d]pyrimidin-4-amine trifluoroacetate], the results for the negative logarithm of the IC50 (pIC50) in experiment [1] and in experiment [2] were no less than 6.30 and no less than 4.30, respectively.

Consider `NS(=O)(=O)OCCc1ccc2c(c1)sc1ncnc(Nc3ccc(OCc4ccccn4)c(Cl)c3)c12` [Example 109, 2-(4-{[3-chloro-4-(pyridin-2-ylmethoxy)phenyl]amino}[1]benzothieno[2,3-d]pyrimidin-7-yl)ethyl sulfamate], for which the pIC50 was no less than 6.30 in experiment [1] and no less than 5.30 in experiment [2].

With `CN(C)CCNC(=O)Cc1ccc2c(c1)sc1ncnc(Nc3ccc(OCc4cscn4)c(Cl)c3)c12` [Example 142, 2-(4-{[3-chloro-4-(1,3-thiazol-4-ylmethoxy)phenyl]amino}[1]benzothieno[2,3-d]pyrimidin-7-yl)-N-[2-(dimethylamino)ethyl] acetamide], the pIC50 in experiment [1] is no less than 6.30; in experiment [2], no less than 4.30.

On to `CCN1CCN(C(=O)/C=C/c2ccc3c(c2)sc2ncnc(Nc4ccc(OCc5cccc(F)c5)c(Cl)c4)c23)CC1` [Example 49, N-{3-chloro-4-[(3-fluorobenzyl)oxy]phenyl}-7-[(1E)-3-(4-ethylpiperazin-1-yl)-3-oxoprop-1-en-1-yl][1]benzothieno[2,3-d]pyrimidin-4-amine], for which the pIC50 in experiment [1] and in experiment [2] was no less than 5.30 throughout.

On to `CN1CCN(CCc2ccc3c(c2)sc2ncnc(Nc4ccc5c(cnn5Cc5cccc(F)c5)c4)c23)CC1` [Example 128, N-[1-(3-fluorobenzyl)-1H-indazol-5-yl]-7-[2-(4-methylpiperazin-1-yl)ethyl][1]benzothieno[2,3-d] pyrimidin-4-amine], for which the pIC50 in experiment [1] is no less than 6.30; in experiment [2] it was no less than 5.30.

For `O=C(O)/C=C/c1ccc2c(c1)sc1ncnc(Nc3ccc(OCc4cccc(F)c4)c(Cl)c3)c12` [Example 48, (2E)-3-[4-({3-chloro-4-[(3-fluorobenzyl)oxy]phenyl}amino)[1]benzothieno[2,3-d]pyrimidin-7-yl]acrylic acid], the pIC50 was no less than 5.30 in experiment [1] and no less than 4.30 in experiment [2].

For `OC/C=C/c1ccc2c(c1)sc1ncnc(Nc3ccc(OCc4cccc(F)c4)c(Cl)c3)c12` [Example 61, (2E)-3-[4-({3-chloro-4-[(3-fluorobenzyl)oxy]phenyl}amino)[1]benzothieno[2,3-d]pyrimidin-7-yl]prop-2-en-1-ol], the pIC50 was no less than 6.30 in experiment [1] and no less than 4.30 in experiment [2].

Turning to `O=C(Cc1ccc2c(c1)sc1ncnc(Nc3ccc(OCc4cccc(F)c4)c(Cl)c3)c12)NCC1CCCNC1` (stereo not drawn) [Example 33, 2-[4-({3-chloro-4-[(3-fluorobenzyl)oxy]phenyl}amino) [1]benzothieno[2,3-d]pyrimidin-7-yl]-N-(piperidin-3-ylmethyl) acetamide hydrochloride], the pIC50 in experiment [1] is no less than 6.30; in experiment [2], no less than 4.30.

The pIC50 is the IC50 on a negative log10 scale, so that one unit is a factor of ten.
